Data published in patent US12390467B2, “Necroptosis inducers or autophagy inhibitors or a combination thereof” (The University of Toledo, priority 2018, dated 2025).

Legend:
Format in all cases: cell-based
MDA-MB468 and MDA-MB231 = assay: Cell cycle analysis (PI, flow cytometry); details: 0.5, 1, 2 μM, 12 h
Method: The cell cycle analysis was performed to evaluate the effect of TPH104 on the normal cell cycle in the TNBC cell lines (i.e. MDA-MB 468, MDA-MB231 and BT-20). Cells were plated in a 6-well plate at a suitable density as previously described and incubated overnight to allow for cell attachment. The following day, cells were incubated with different TPH104 concentrations (0.5, 1, or 2 μM) or vehicle for 12 h. The cells were harvested by trypsinization and collected in individual test tubes. Subsequently, cells were washed 3× with ice cold PBS and fixed with 70% ethanol for 30 minutes. Following fixation, cells were again washed 3× with intermittent centrifugation at 2000 rpm for 5 minutes and incubated with 100 μl RNAse (from a 100 μg/ml stock) (to ensure that only DNA was stained). Two hundred μl of PI (from a 50 μg/ml stock solution) was added to each test tube and cells were stain cells for at least 15 minutes on ice. Finally, a FACS Calibur flow cytometer (BD Biosciences, San Jose, CA) was used to detect the distribution of the cells following incubation with vehicle or TPH104. FlowJo v10.2 software from FlowJo LLC (Ashland, OR) was used for data analysis.

[1] = test system: MDA-MB468 (TNBC cell line); assay: MTT cell viability assay, MDA-MB468; details: Homo sapiens, MDA-MB-468, 72 h, read-out: IC50 ± SD, MDA-MB468
Method: The following cancer and non-cancer cell lines were used in the initial cytotoxicity screening of the TPH104 compounds: triple negative breast cancer (TNBC): MDA-MB468, MDA-MB 231, and BT-20; non-TNBC: MCF-7 and ZR-75-1; ovarian: Ov2008; prostate: DU145; colon: HCT-116, S1, and LOVO; lung: H460; normal kidney: HEK-293; normal breast: HMEC; and normal colon: CRL-1459. All cells were cultured in Dulbecco's modified Eagle medium (DMEM), supplemented with 10% fetal bovine serum (FBS), and 1% penicillin/streptomycin (P/S). Cells were allowed to grow as adherent monolayers in T25 flasks in a humidified incubator with 5% CO2 at 37° C. for a period of 24 h, unless otherwise specified for certain experiments.
The MTT assay was used to determine the cytotoxicity of all of the compounds. Briefly, in a 96-well flat-bottom cell culture plate, the cells were seeded at a density between 3-5×10^3 cells/well (180 μl in each well) and incubated for 24 h (a hemocytometer was used for cell counting). The next day, the cells were incubated with different concentrations of the nine compounds (0, 0.1, 0.3, 1, 3, 10, 30, and 100 μM) for 72 h. After 72 h, 20 μl of 5 mg/ml of 3-(4,5-dimethylthiazol-2-yl)-2,5-diphenyltetrazolium bromide (MTT) was added to the plate and incubated with the cells for 3 h at 37° C. In this experiment, the living cells will reduce the soluble MTT dye to non-soluble purple formazan crystals. Following incubation, the media containing MTT removed via suction and 100 μL of 100% dimethyl sulfoxide (DMSO) was added to dissolve the formazan crystals. Subsequently, the plate was shaken for 2 minutes and the absorbance was measured at a wavelength of 570 nm using a SpectraMax iD3 Multi-Mode Microplate Reader (Molecular Devices, Sunnyvale, CA). The IC50 values of each compound were calculated and used to determine the selectivity ratio (IC50 in normal cells/IC50 in cancer cells) of each compound as previously described. Based on the results obtained from these experiments, the compound TPH104, which had the lowest IC50 value, was selected for further experiments.

[2] = target: T1, ABCG2 transporter (S1M180 cells) (Homo sapiens, UniProt Q9UNQ0, R482G); assay: Intracellular accumulation of rhodamine 123; details: 0.05-1 μM
T1 construct: intracellular accumulation of rhodamine 123 in ABCG2 overexpressing S1M180 cells; endogenous in cells; host or cells: S1M180 colon cancer cells
T1 sequence (Q9UNQ0 whole entry R482G, one chain of several): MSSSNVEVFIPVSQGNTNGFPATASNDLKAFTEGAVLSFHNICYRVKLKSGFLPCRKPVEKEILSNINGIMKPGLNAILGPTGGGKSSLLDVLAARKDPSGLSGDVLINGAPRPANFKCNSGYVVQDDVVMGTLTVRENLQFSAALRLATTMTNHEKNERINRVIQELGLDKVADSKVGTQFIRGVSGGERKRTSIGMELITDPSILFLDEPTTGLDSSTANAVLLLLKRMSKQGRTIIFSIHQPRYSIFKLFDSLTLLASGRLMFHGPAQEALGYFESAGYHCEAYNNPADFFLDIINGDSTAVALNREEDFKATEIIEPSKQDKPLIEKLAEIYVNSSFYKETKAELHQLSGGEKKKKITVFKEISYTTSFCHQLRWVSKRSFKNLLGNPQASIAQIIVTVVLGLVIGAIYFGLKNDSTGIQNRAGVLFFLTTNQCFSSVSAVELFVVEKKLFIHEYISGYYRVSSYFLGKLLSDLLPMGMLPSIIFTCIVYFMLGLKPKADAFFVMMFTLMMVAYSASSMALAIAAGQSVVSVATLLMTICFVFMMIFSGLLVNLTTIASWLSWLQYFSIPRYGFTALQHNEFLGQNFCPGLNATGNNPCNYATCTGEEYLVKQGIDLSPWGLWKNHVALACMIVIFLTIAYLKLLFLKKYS
Method: FIG. 26: TPH104 reverses multidrug resistance by blocking the function of ABCG2 transporter. The effect of TPH104 and nilotinib on the intracellular accumulation of rhodamine 123 in ABCG2 overexpressing S1M180 cells. The top image is a graph showing the concentration-dependent increase in the accumulation of rhodamine 123 in S1M180 cells incubated with TPH104. Red filled=control; sky blue filled=0.05 μM; brown filled=0.1 μM; dark blue filled=0.3 μM; lime green filled=1 μM of TPH104, respectively, and olive green=nilotinib, 5 μM. The bottom image is a bar graph representing the relative rhodamine 123 accumulation levels. The data shown as means±SEM of three independent experiments. *p<0.05; ***p<0.001 compared to the control.

In the case of COc1ccc(O)c(/C=N/Nc2ncnc3scc(-c4ccc(C)cc4)c23)c1 [TPH104], the “level of cells arrested in the S phase” value (MDA-MB468 and MDA-MB231) is reported as “significantly increased”, the “number of cells in the G1 phase” value (MDA-MB468 and MDA-MB231) is reported as “significant reduction” and the IC50 [1] is reported as 250 nM. The “intracellular accumulation of rhodamine 123” value [2] was “increased”.
